Source: PubChem BioAssay AID540271 (Broad Institute, 2011)
Activity calls are given as the source filed them. No rule for the calls is given here.

System: S. cerevisiae expressing PfHSP40, growth rescue, plate reader
Assay: S cerevisiae expressing PfHSP40, growth rescue, cherry pick dose confirmatory, plate reader (AID 540271);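 also: yeast growth read after three days of incubation at 30 °C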

Structure (SMILES) | AC50
O=S(=O)(c1ccc(Cl)cc1)N1CCC2(CC1)OCCN2S(=O)(=O)c1cccs1 | 4.77 µM
CCOC(=O)c1ccc(NC(=S)N(Cc2cccnc2)Cc2ccco2)cc1 | 6.54 µM
COc1ccc(-c2csc(NC(=O)c3ccccc3F)c2C(=O)O)cc1 | 3.69 µM
CCCCCCSc1ccc(-c2nc3ccccn3c2NCCCC)cc1 | 6.05 µM
O=C(c1ccccc1)N1C(=O)C(c2ccccc2)Oc2ccccc21 (stereo unspecified) | 0.937 µM
CCOC(=O)c1ccc(NC(=O)CC2C(=O)OCCN2CC)cc1 (stereo unspecified) | 4.66 µM
O=C(O)c1ccc(N/N=C/C2=C(N3CCOCC3)C(=C\c3ccccc3)/CC2)cc1 | 6.18 µM
CC(C)=CCc1c(O)cc(O)c2c1OC(c1ccc(O)cc1)CC2=O (stereo unspecified) | 5.76 µM
Cc1cc(C(=O)COC(=O)Cc2n[nH]c(=O)c3ccccc23)c(C)n1-c1cccc(C(F)(F)F)c1 | 6.72 µM
O=C(CSc1ccc(-c2ccccn2)nn1)NC1CCCC1 | 11.1 µM
CC(C)CN=Cc1c(O)c([N+](=O)[O-])cc2oc3c(c12)CCCC3 | 1.33 µM
CC(=O)C1=C(c2ccc(Br)cc2)C(=O)c2ccccc2C1=O | 2.62 µM
c1ccc(-c2ccc(OCCCn3cncn3)cc2)cc1 | 5.48 µM
COc1ccc(N(C(=O)c2ccncc2)S(=O)(=O)c2ccccc2)cc1 | 2.4 µM
c1ccc(Cn2cc(-c3cccnc3)cn2)cc1 | 1.62 µM
O=S(=O)(Nc1ccccc1)c1ccc(Oc2ncc(C(F)(F)F)cc2Cl)cc1 | 6.09 µM
S=C(NCc1ccco1)Nc1ccc(Oc2ccc(Cl)cc2)cc1 | 7.02 µM
Cn1nnnc1N=N/C(=N/Nc1ccccc1)c1ccccc1 | 1.85 µM
COc1ccccc1N(C)S(=O)(=O)c1ccc(Cl)c(C(=O)NNC(=O)c2ccccc2O)c1 | 2.64 µM
O=C(NC1=CC(=O)c2ccccc2C1=O)c1ccccc1 | 7.77 µM
Cc1ccc(NC(=S)Nc2cccc3cnccc23)cc1C | > 12 µM (inactive)
O=C(CSc1ccc(-c2ccccn2)nn1)c1ccccc1 | 2.48 µM
O=C(CSc1ccc(-c2ccccn2)nn1)NCc1ccccc1 | 6.96 µM

Structure (SMILES) | AC50
Cc1ccc(C(C[N+](=O)[O-])c2c(N)n(C)c(=O)n(C)c2=O)cc1 (stereo unspecified) | 6.03 µM
O=CC1=C(c2ccccc2)Oc2ccccc2O1 | 2.78 µM
O=[N+]([O-])c1cc2oc3c(c2c(C=NCc2ccccc2)c1O)CCCC3 | 0.986 µM
C[C@H](O)[C@H]1CC[C@H]2[C@@H]3CCC4=CC(=O)CC[C@]4(C)[C@H]3CC[C@]12C | 6.85 µM
Cc1ccc(Sc2cc(C)nc(-c3ccccn3)n2)cc1 | 3.51 µM
COc1ccc(-n2nc(C#N)c(Cl)cc2=O)cc1 | 7.48 µM
CC[C@@H](C(=O)[C@@H](C)[C@@H](O)[C@H](C)[C@@H]1O[C@@H]([C@@H](CC)C(=O)O)CC[C@@H]1C)[C@H]1O[C@]2(C=C[C@@H](O)[C@]3(CC[C@@](C)([C@H]4CC[C@](O)(CC)[C@H](C)O4)O3)O2)[C@H](C)C[C@@H]1C | 3 µM
CC(=O)c1c(C)oc2c1C(=O)c1ccccc1C2=O | 5.09 µM
COc1ccc(N(C)S(=O)(=O)c2ccc(Cl)c(C(=O)NNC(=O)c3ccccc3O)c2)cc1 | 2.52 µM
Nc1cc2nc3ccccc3oc-2cc1=O | 1.52 µM
CCCSC(=S)c1c(C)[nH]n(-c2ccccc2)c1=O | 5.46 µM
O=C1c2cccc(Cl)c2C(=O)c2c1cccc2N1CCCC1 | 4.9 µM
Cc1cc(F)ccc1S(=O)(=O)N(C(=O)c1ccncc1)c1ccc(OC(=O)c2ccncc2)cc1 | 6.3 µM
Nc1c(Cl)ncnc1N/N=C/c1ccc2ccccc2n1 | 5.36 µM
Cc1cccc(NC(=S)NC(C)CCc2ccccc2)c1 (stereo unspecified) | 7.92 µM
Cc1ccc(C2(c3ccc(C)cc3)CC2C(=O)Nc2ccc([N+](=O)[O-])cc2O)cc1 (stereo unspecified) | 5.44 µM
O=C(N/N=C/c1c(O)n(Cc2ccccc2)c(=O)c2ccccc12)c1cccnc1 | 6.92 µM
O=C1/C(=C/c2cccs2)SC(=S)N1NS(=O)(=O)c1ccccc1 | 3.9 µM
COc1ccc(-c2cc(C(=O)N3CCN(c4ccccc4F)CC3)c3ccccc3n2)c(OC)c1 | 5.68 µM
O=C(c1ccccc1)c1ccc(Cn2cc(-c3ccccc3)nn2)cc1 | 4.34 µM
CC(C)(C)n1nc(-c2ccc(F)cc2)c2c(N)ncnc21 | 1.47 µM
CNC(=S)Nc1ccc(C23CC4CC(CC(C4)C2)C3)cc1 | 7.25 µM
COc1ccc(/C=N/Nc2cc(C)nc(-n3nc(C)cc3C)n2)cc1 | 5.99 µM

Structure (SMILES) | AC50
CCc1ccc([C@@H]2CC=C(C(=O)O)[C@H](c3ccc(Cl)cc3)N2S(=O)(=O)c2ccc(C)cc2)cc1 | 5.39 µM
O=C(N/N=C/c1cc(Cl)cc([N+](=O)[O-])c1O)c1ccccc1NS(=O)(=O)c1cccs1 | 1.04 µM
O=C(NNC(=O)c1cc(Cl)ccc1O)c1cccc(S(=O)(=O)N2CCOCC2)c1 | 5.28 µM
Oc1ccccc1-c1nnc(SCCN2CCOCC2)n1Cc1ccccc1 | 5.94 µM
Cn1cnc([N+](=O)[O-])c1S(=O)(=O)Oc1ccc(Cl)cc1 | 6.4 µM
COc1cccc(/C=N/Nc2ncnc(Cl)c2N)c1O | 4.52 µM
COc1cc2c(c(OC)c1OC)-c1ccc(O)c(=O)cc1[C@@H](N)CC2 | 2.52 µM
Cc1cccc2sc(NNC(=O)c3ccc(S(=O)(=O)N4CC(C)CC(C)C4)cc3)nc12 (stereo unspecified) | 1.65 µM
CCCC1CCC(c2ccc(/C(N)=N/O)cc2)CC1 (stereo unspecified) | > 12 µM (inactive)
CCOC(=O)c1cc2c(=Cc3ccc(N(C)C)cc3)c3ccccc3n2[n+]1C | 3.75 µM
CSC1SCC2C(=O)N(C)C(C(C)C)C(=O)OCC(NC(=O)c3cnc4ccccc4n3)C(=O)NC(C)C(=O)N(C)C1C(=O)N(C)C(C(C)C)C(=O)OCC(NC(=O)c1cnc3ccccc3n1)C(=O)NC(C)C(=O)N2C (stereo unspecified) | > 12 µM (inactive)
Cc1nnc(N=c2ssnc2Cl)o1 | 3.22 µM
O=C(O/N=C(\c1ccccc1)c1ccncc1)c1ccccc1Cl | > 12 µM (inactive)
CNc1cc(CSC)nc(SCc2ccc(Cl)cc2Cl)n1 | 4.18 µM
CCCCCCCc1ccc(-c2ccc(O)cc2)nc1 | 5.12 µM
Nc1nc2sc3c(c2c(=O)s1)CCCC3 | 3.58 µM
COc1cccc2c1C(=O)c1c(O)c3c(c(O)c1C2=O)CC(O)(C(C)=O)CC3OC1CC(N(C)C)C(O)C(C)O1 (stereo unspecified) | 1.41 µM
O=C1OC(c2ccccc2)=NC12CC2c1ccc(Cl)cc1 (stereo unspecified) | 2.2 µM
O=C(COc1ccccc1F)Nc1nc(-c2ccccn2)cs1 | 5.52 µM
Cc1ccc(-c2nc3ccc(Cl)cc3c(=O)n2O)cc1 | 2.08 µM
Cc1ccc(O)c(-c2cc(-c3ccccc3C)[nH]n2)c1 | 5.42 µM
Cc1cc(/C=C2\SC(=S)N(C)C2=O)c(C)n1-c1ccc(O)cc1 | 3.33 µM
Cc1noc2ncnc(SCc3ccc(C(F)(F)F)cc3)c12 | 7.67 µM

Structure (SMILES) | AC50
CC1CCCCC1NC(=O)/C(C#N)=C/c1ccccc1F (stereo unspecified) | 5.7 µM
CC(C)(C)n1nc(Cc2cccc3ccccc23)c2c(N)ncnc21 | 5.46 µM
Cc1ccc(Nc2cc(C)nn2-c2nc(C)cc(C)n2)cc1 | 3.95 µM
O=c1cc(CSc2ccc(Cl)cc2)nc(-c2ccccn2)[nH]1 | 4.13 µM
CCCn1c(=O)c(C(=O)NCc2ccc(OC)c(OC)c2)c(O)c2ccccc21 | 2.32 µM
CCOC(=O)c1ccc(-c2ccc(C3Nc4ccccc4C(=O)N3O)o2)cc1 (stereo unspecified) | 3.91 µM
CC1CC(C)CN(C(=O)c2cccc(S(=O)(=O)Nc3cc(C(F)(F)F)ccc3Cl)c2)C1 (stereo unspecified) | 5.69 µM
Cc1ccc(-c2c3c(nc4sc(C(N)=O)c(N)c24)CCCC3)o1 | 6.13 µM
COc1ccc(C(=O)On2c(-c3ccc(Br)cc3)nc3ccccc3c2=O)cc1 | 4.13 µM
CC/C(=N/NC(=O)c1ccccc1O)c1c(C)[nH]n(-c2ccccc2)c1=O | 0.705 µM
CCn1c2ccc(C)cc2c2nc3cc(C(=O)O)ccc3nc21 | 2.57 µM
CCC(NC(=S)NCc1ccc(F)cc1)c1ccc(C(C)C)cc1 (stereo unspecified) | 5.15 µM
COc1cnc(-c2ccccn2)nc1Sc1ccccc1 | 6.99 µM
COc1ccc(CNc2ncnc3sccc23)cc1 | 4.38 µM
COc1cc(OC)c(-c2c3cc(O)c(=O)cc-3oc3cc(O)c(O)cc23)cc1OC | 1.67 µM
CCOC(=O)c1c2c(n(-c3ccc(OC)cc3)c1C)C(=O)C(=O)c1ccccc1-2 | 3.97 µM
N#C/C(=C\c1cccc(Oc2ccccc2)c1)C(=O)N1CCOCC1 | 5.91 µM
CCc1ccc(S(=O)(=O)N(C(=O)c2ccncc2)c2ccc(OC(=O)c3ccncc3)cc2)cc1 | 3.01 µM
COc1cccc(-n2nc(C#N)c(Cl)cc2=O)c1 | 5.59 µM
O=c1nc(N/N=C/c2ccccn2)cn[nH]1 | 5.76 µM
O=C(NCCC1=CCCCC1)c1c(O)nc2sccn2c1=O | 3.82 µM
O=[N+]([O-])c1cccc(C=NNc2ccc3ccccc3n2)c1O | 1.69 µM
COc1cc(/C=N/O)cc(Br)c1OCc1cccc(Cl)c1 | 5.31 µM

Structure (SMILES) | AC50
c1ccc(Nc2cccc(Nc3ccccc3)c2)cc1 | 5.81 µM
O=C(COc1ccc([N+](=O)[O-])cc1)Nc1nc(-c2ccccn2)cs1 | 5.37 µM
O=C(Nc1nnc(-c2ccccc2)o1)c1ccc(Cl)cc1 | 1.84 µM
O=C1c2ccccc2C(=O)c2c1oc(C(F)(F)F)c2C(=O)c1ccccc1 | 1 µM
CCCCCCC(Cl)(Cn1ccnc1)c1ccccc1 (stereo unspecified) | 6.48 µM
Cc1ccc(C)c(S(=O)(=O)N2CCN(Cc3ccc(O)c4ncccc34)CC2)c1 | 5.23 µM
CCN(CC)c1ccc(/C=N/NC(=O)c2c(Cl)cnn2C)c(O)c1 | 4.78 µM
CCC(C)n1ncn(-c2ccc(N3CCN(c4ccc(OCC5COC(Cn6cncn6)(c6ccc(Cl)cc6Cl)O5)cc4)CC3)cc2)c1=O (stereo unspecified) | 0.129 µM
O=C(O)CSc1nc(-c2ccc(Cl)cc2)nc2c1oc1ccccc12 | 6.02 µM
Cc1onc(-c2ccccc2)c1C(=O)NC(=S)NNC(=O)c1ccc(O)cc1O | 4.82 µM
Cn1ccc(=Nc2ccc(NC(=O)c3ccc(N=c4ccn(C)c5ccc([N+](=O)[O-])cc45)cc3)cc2)cc1 | 6.48 µM
O=[N+]([O-])c1ccc(Sc2cccc[n+]2[O-])c2nonc12 | 2.43 µM
Cc1csc(NC(=O)C(C)Oc2ccc(Cl)cc2C)n1 (stereo unspecified) | 8.4 µM
O=C(C1CCN(C2CC(=O)N(c3cccc(Cl)c3)C2=O)CC1)N1CCCC1 (stereo unspecified) | 6.02 µM
Cc1cc([N+](=O)[O-])c(NC2CCCCC2)c([N+](=O)[O-])c1 | 9.82 µM
CC[n+]1c(/C=C/C=C/c2ccc(N(C)C)cc2)sc2ccccc21 | 3.71 µM
CCOC(=O)C1=C(Cc2ccc(OC)cc2)C(=O)c2ccccc2C1=O | 5.4 µM
Clc1ccc(C2=NCCN2)cc1 | 2.38 µM
O=C(N/N=C(\c1ccccc1)c1cccnc1)c1cccc(F)c1 | 4.97 µM
